# Laboratory results: US20080014255A1, “Liposome bonded with antibody and polyalkylene glycol” (Mitsubishi Chemical Corporation, priority 1999, published 2008)
# Test: Pharmacokinetic test: plasma DXR concentration after tail vein administration of liposomes
# Format: in vivo, Male BALB/cAjcl mice
# Conditions: free (leaked) DXR
# Method: Male BALB/cAjcl mice (6-week old) were used in experiments. A mouse group consisting of four mice was used for each of the liposomes, and one untreated mouse was used as a blank in the experiment. The liposomes were administered into the tail vein at the dose of 2 mg/kg as DXR. After 16 hours from the administration, a Nembutal injection solution (Dainippon Pharmaceutical Co., Ltd.) was intraperitoneally administered to the mice and thoracotomy was performed under anesthetization to collect blood. Blood plasma was separated and used for analysis of DXR.
# 100 μL of the plasma was added with 1 mL of 0.3 M hydrochloric acid/50% ethanol (hydrochloric ethanol) and heated at 60° C. for 10 minutes to extract DXR. The extract was cooled to 4° C. and centrifuged at 15,000 rpm for 10 minutes to collect a supernatant. The sample was diluted 4 times with hydrochloric ethanol and its fluorescence was measured at a fluorescence wavelength of 590 nm with an excitation wavelength of 490 nm. A calibration curve was prepared by using DXR diluted with hydrochloric ethanol to known concentrations and used in quantification of DXR in plasma. The recovery of DXR from the mouse plasma was 95 to 98% in a range of […] of DXR (Reference: Cancer Res., 47, 4471, 1987).
# DXR in blood plasma was quantified in the same manner as in Example 2.
compound,measurement,value
"COc1cccc2c1C(=O)c1c(O)c3c(c(O)c1C2=O)C[C@@](O)(C(=O)CO)C[C@@H]3O[C@H]1C[C@H](N)[C@H](O)[C@H](C)O1 [DXR, doxorubicin]",disappearance from blood of DXR leaked from the liposomes,rapidly disappear from blood
